Consider 17 molecules from patent EP0558245A1, “Heterobicyclic compounds as antagogists of alpha-1 adrenergic and SHT1A receptors” (priority 1992, dated 1993).

One data set concerns the target α₁ receptors. Description: [3H]prazosin binding (α1 receptors), rat cerebral cortex membranes. The settings on record: rat cerebral cortex crude membranes, [3H]prazosin 0.35 nM, 25°C 30 min; read-out: Receptor Binding IC50 (nM) α1.
The target of a further data set is T1, 5HT1A receptors (Rattus norvegicus, UniProt P19327).
T1 construct: Rat hippocampi were homogenized; from tissue; host or cells: rat hippocampus membranes
T1 sequence (P19327 1-422): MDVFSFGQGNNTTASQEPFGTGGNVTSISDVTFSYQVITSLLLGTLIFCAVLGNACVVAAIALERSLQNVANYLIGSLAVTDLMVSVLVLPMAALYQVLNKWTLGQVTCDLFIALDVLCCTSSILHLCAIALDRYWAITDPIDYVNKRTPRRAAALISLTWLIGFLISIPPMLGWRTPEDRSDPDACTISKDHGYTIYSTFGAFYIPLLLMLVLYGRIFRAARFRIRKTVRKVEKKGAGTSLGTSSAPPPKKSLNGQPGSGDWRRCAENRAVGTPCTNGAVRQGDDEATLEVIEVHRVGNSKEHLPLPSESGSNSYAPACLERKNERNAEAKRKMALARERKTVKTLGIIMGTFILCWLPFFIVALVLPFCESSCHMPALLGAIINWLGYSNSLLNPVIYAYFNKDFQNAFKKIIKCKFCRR
The experiment in a line: [3H]8-OH-DPAT binding (5HT1A receptors), rat hippocampus membranes. To be noted: rat hippocampus crude membranes, [3H]8-OH-DPAT 1.0 nM, 25°C 30 min; read-out: Receptor Binding IC50 (nM) 5-HT1a.

Data set [1] is described as follows: Acute toxicity in mice after intraperitoneal and oral administration. To be noted: mouse, in vivo, female albino Swiss mice, mortality recorded 7 days after administration. The method, then:
Male Sprague Dawley rats [Crl: CD' BR] of 200-300 g b.w., female Albino Swiss mice [Crl: CD-1 (ICR) BR] 20-30 g b.w., and male Beagle dogs (10-12 kg b.w.) were obtained from Charles River, Italy and Nossan (Correzzana, Milan, Italy), respectively. Animals were housed with free access to food and water and maintained on forced light-dark cycle at 22-24°C until the day of experiments.
The acute toxicity of synthesized compounds was evaluated in female albino Swiss mice after intraperitoneal and oral administration. Four logarithmic scaled doses of the compounds were dissolved or suspended in 0.5% Methocel and administered in a volume of 10 ml/kg to groups of 4 mice/dose. Mortality was recorded 7 days after the administration. Data analysis: the LD₅₀ values and their fiducial limits were calculated according to the method of Weil (Biometrics, 8, 249, 1952).

[2] abbreviates: ip, intraperitoneal, read-out: Acute Toxicity in Mice LD50 (mg/kg) i.p.
Where [3] appears, read: oral, read-out: Acute Toxicity in Mice LD50 (mg/kg) p.o.

Counter-ions that a name gives are not always drawn. Like-named read-outs stand apart in the source and are kept apart here.

Procedure for 5HT1A receptors: Rat hippocampi were homogenized in 50 volumes of original wet weight of ice-cold 50 mM Tris-HCl buffer pH 7.4. The homogenates were centrifuged at 48,000 x g for 10 minutes, and the pellets were resuspended in the same volume of ice-cold buffer, incubated for 10 minutes at 37°C, centrifuged and resuspended two more times. The final pellets obtained were resuspended in the same volume of buffer and incubated according to the conditions reported in the table below.
(§1) The incubations were terminated after the appropriate time (see table) by rapid filtration through Whatman GF/B filters using a Brandel cell harvester. The filters were washed twice with 15 ml of ice-cold buffer (see table). The radioactivity retained on the filters was determined by liquid scintillation counting. Nonspecific binding (which amounted generally to 10-30%) was evaluated by adding high concentrations of the specific displacers (see table). All the compounds were initially tested at 1x10⁻⁶ M concentration, and in the presence of significant displacing activity, a complete competition curve was generated (down to a concentration of 10⁻¹¹ M). All the samples were run in triplicate.
The competition curves were always analyzed (to evaluate the IC₅₀ values) by non linear curve fitting of the logistic equation according to the method reported by De Lean et al. (Am. J. Physiol., 235, E97, 1978), utilizing the ALLFIT program [publically available from the National Institutes of Health (N.I.H.) Bethesda, Maryland, USA] written for the IBM PC.
Procedure for α₁ receptors: Rat cerebral cortices were homogenized in 50 volumes of original wet weight of ice-cold 50 mM Tris-HCl buffer pH 7.4. The homogenates were centrifuged at 48,000 x g for 10 minutes, and the pellets were resuspended in the same volume of ice-cold buffer, centrifuged and resuspended two more times. The final pellets obtained were resuspended in the same volume of buffer and incubated according to the conditions reported in the table below.
as §1

As usually defined, the IC50 is the concentration needed to halve the response being measured. With `COc1ccccc1N1CCN(CCC(=O)c2cccc3c(=O)c(C)c(-c4ccccc4)oc23)CC1.Cl` [Example 4, 8-{3-[4-(2-methoxyphenyl)-1-piperazinyl]-1-oxopropyl}-3-methyl-4-oxo-2-phenyl-4H-1-benzopyran hydrochloride], the IC50 is 550 nM on α₁ receptors and 55 nM at 5HT1A receptors. The LD50 at 168 h in data set [1] (setting [2]) is 346 mg/kg; in data set [1] (setting [3]) it was 1730 mg/kg.

With `COc1ccccc1N1CCN(CCOC(=O)c2cccc3c(=O)c(C)c(-c4ccccc4)oc23)CC1.Cl.Cl` [Example 6, 8-{2-[4-(2-methoxyphenyl)-1-piperazinyl]-ethoxycarbonyl}-3-methyl-4-oxo-2-phenyl-4H-1-benzopyran dihydrochloride], the IC50 is 107 nM on α₁ receptors and 1000 nM on 5HT1A receptors. Besides, the LD50 at 168 h in data set [1] (setting [2]) was found to be 233 mg/kg.

Consider `Cc1c(-c2ccccc2)oc2c(C(=O)OCCCN3CCN(c4ccccc4Cl)CC3)cccc2c1=O.Cl.Cl` [Example 7, 8-{3-[4-(2-chlorophenyl)-1-piperazinyl]-propoxycarbonyl}-3-methyl-4-oxo-2-phenyl-4H-1-benzopyran dihydrochloride], for which the IC50 on α₁ receptors came out at 86 nM; at 5HT1A receptors, 155 nM. In addition, the LD50 at 168 h in data set [1] (setting [2]) turned out to be 384 mg/kg; in data set [1] (setting [3]), 1920 mg/kg.

As to `Cc1c(-c2ccccc2)oc2c(C(=O)OCCCN3CCN(c4ccccc4)CC3)cccc2c1=O.Cl.Cl` [Example 8, 8-[3-(4-phenyl-1-piperazinyl)-propoxycarbonyl]-3-methyl-4-oxo-2-phenyl-4H-1-benzopyran dihydrochloride], the results for the IC50 on α₁ receptors and at 5HT1A receptors were 66 nM and 111 nM, respectively. The LD50 at 168 h is more than 500 mg/kg in data set [1] (setting [2]) and 1920 mg/kg in data set [1] (setting [3]).

Consider `COc1ccccc1OCCNCCCNC(=O)c1cccc2c(=O)c(C)c(-c3ccccc3)oc12.Cl` [Example 14, 8-{3-[2-(2-methoxyphenoxy)-ethylamino]-propylcarbamoyl}-3-methyl-4-oxo-2-phenyl-4H-1-benzopyran hydrochloride], for which the IC50 on α₁ receptors was 61 nM; on 5HT1A receptors it was 6 nM. In addition, the LD50 at 168 h in data set [1] (setting [2]) was 140 mg/kg; in data set [1] (setting [3]), 559 mg/kg.

As to `Cc1c(-c2ccccc2)oc2c(C(=O)NCCCN3CCN(c4ccccc4)CC3)cccc2c1=O` [Example 15, 8-[3-(4-phenyl-1-piperazinyl)-propylcarbamoyl]-3-methyl-4-oxo-2-phenyl-4H-1-benzopyran monohydrochloride hemihydrate], the IC50 at α₁ receptors was determined as 8 nM; on 5HT1A receptors, 131 nM. The LD50 at 168 h worked out at 306 mg/kg in data set [1] (setting [2]) and 496 mg/kg in data set [1] (setting [3]).

In the case of `Cc1ccccc1N1CCN(CC(O)c2cccc3c(=O)c(C)c(-c4ccccc4)oc23)CC1.Cl` (stereo not drawn) [Example 18, 8-{1-hydroxy-2-[4-(2-methylphenyl)-1-piperazinyl]-ethyl}-3-methyl-4-oxo-2-phenyl-4H-1-benzopyran hydrochloride], the IC50 on α₁ receptors was 270 nM; at 5HT1A receptors, more than 1000 nM. The LD50 at 168 h turned out to be 457 mg/kg in data set [1] (setting [2]) and 3000 mg/kg in data set [1] (setting [3]).

For `CCOc1ccccc1N1CCN(CC(O)c2cccc3c(=O)c(C)c(-c4ccccc4)oc23)CC1.Cl` (stereo not drawn) [Example 19, 8-{1-Hydroxy-2-[4-(2-ethoxyphenyl)-1-piperazinyl]-ethyl}-3-methyl-4-oxo-2-phenyl-4H-1-benzopyran hydrochloride], the IC50 was determined as 165 nM on α₁ receptors and 340 nM at 5HT1A receptors. Further, the results for the LD50 at 168 h in data set [1] (setting [2]) and in data set [1] (setting [3]) were more than 1000 mg/kg and more than 3000 mg/kg, respectively.

For the molecule `CCOC(CN1CCN(c2ccccc2OC)CC1)c1cccc2c(=O)c(C)c(-c3ccccc3)oc12.Cl` (stereo not drawn) [Example 22, 8-{1-ethoxy-2-[4-(2-methoxyphenyl)-1-piperazinyl]-ethyl}-3-methyl-4-oxo-2-phenyl-4H-1-benzopyran hydrochloride], the IC50 at α₁ receptors was determined as 117 nM; at 5HT1A receptors it was 48 nM. For the same molecule, the LD50 at 168 h was more than 500 mg/kg in data set [1] (setting [2]) and more than 2000 mg/kg in data set [1] (setting [3]).

As for `COc1ccccc1N1CCN(CCN(Cc2cccc3c(=O)c(C)c(-c4ccccc4)oc23)C(C)=O)CC1.Cl` [Example 24, 8-{N-acetyl-2-[4-(2-methoxyphenyl)-1-piperazinyl]-ethylaminomethyl}-3-methyl-4-oxo-2-phenyl-4H-1-benzopyran hydrochloride], the IC50 at α₁ receptors was found to be 690 nM; at 5HT1A receptors it was 212 nM. The LD50 at 168 h in data set [1] (setting [2]) is more than 1000 mg/kg; in data set [1] (setting [3]) it was more than 3000 mg/kg.

On to `COc1ccccc1N1CCN(CC(=O)N(C)Cc2cccc3c(=O)c(C)c(-c4ccccc4)oc23)CC1` [Example 26, 8-{N-methyl-N-[4-(2-methoxyphenyl)-1-piperazinyl]-acetamidomethyl}-3-methyl-4-oxo-2-phenyl-4H-1-benzopyran hydrochloride hydrate], for which the 50% inhibitory concentration (IC50) at α₁ receptors was 270 nM; at 5HT1A receptors it was more than 1000 nM. Besides, the LD50 at 168 h in data set [1] (setting [2]) was more than 500 mg/kg; in data set [1] (setting [3]) it was more than 2000 mg/kg.

Regarding `CCOc1ccccc1OCCNCCOCc1cccc2c(=O)c(C)c(-c3ccccc3)oc12.Cl` [Example 28, 8-{2-[2-(2-ethoxyphenoxy)-ethylamino]-ethoxymethyl}-3-methyl-4-oxo-2-phenyl-4H-1-benzopyran hydrochloride], the IC50 on α₁ receptors was 120 nM; at 5HT1A receptors it was 96 nM. Also, the LD50 at 168 h in data set [1] (setting [2]) came out at 203 mg/kg; in data set [1] (setting [3]) it was 1130 mg/kg.

As to `COc1ccccc1N1CCN(CCCN(C)c2cccc3c(=O)c(C)c(-c4ccccc4)oc23)CC1` [Example 35, 8-{N-methyl-3-[4-(2-methoxyphenyl)-1-piperazinyl]-propylamino}-3-methyl-4-oxo-2-phenyl-4H-1-benzopyran hydrochloride hemihydrate], the IC50 on α₁ receptors was determined as 15 nM; on 5HT1A receptors it was 8 nM. In addition, the results for the LD50 at 168 h in data set [1] (setting [2]) and in data set [1] (setting [3]) were 329 mg/kg and 959 mg/kg, respectively.

As for `COc1ccccc1N1CCN(CCCN(C(C)=O)c2cccc3c(=O)c(C)c(-c4ccccc4)oc23)CC1.Cl.O` [Example 36, 8-{N-acetyl-3-[4-(2-methoxyphenyl)-1-piperazinyl]-propylamino}-3-methyl-4-oxo-2-phenyl-4H-1-benzopyran hydrochloride hydrate], the IC50 on α₁ receptors came to 18 nM; at 5HT1A receptors, 54 nM. For the same molecule, the LD50 at 168 h in data set [1] (setting [2]) was more than 500 mg/kg; in data set [1] (setting [3]) it was more than 2000 mg/kg.

Regarding `COc1ccccc1N1CCN(CCC(=O)Nc2cccc3c(=O)c(C)c(-c4ccccc4)oc23)CC1.Cl` [Example 37, 8-{3-[4-(2-methoxyphenyl)-1-piperazinyl]-propionamido}-3-methyl-4-oxo-2-phenyl-4H-1-benzopyran hydrochloride], the IC50 was 32 nM at α₁ receptors and 77 nM on 5HT1A receptors. The figures for the LD50 at 168 h in data set [1] (setting [2]) and in data set [1] (setting [3]) were more than 500 mg/kg and more than 2000 mg/kg, respectively.

Regarding `COc1ccc(-c2oc3c(C(=O)NCCCN4CCN(c5ccccc5OC)CC4)cccc3c(=O)c2C)cc1` [Example 110, 8-{3-[4-(2-methoxyphenyl)-1-piperazinyl]-propylcarbamoyl}-2-(4-methoxyphenyl)-3-methyl-4-oxo-4H-1-benzopyran], the IC50 at α₁ receptors is 26 nM; at 5HT1A receptors it was 15 nM.

Turning to `COc1ccccc1N1CCN(CCCC(=O)c2cccc3c(=O)c(C)c(-c4ccccc4)oc23)CC1.CS(=O)(=O)O` [methanesulphonate], the IC50 amounted to 22 nM at α₁ receptors and 84 nM on 5HT1A receptors.
